System: Wistar outbred rats
Assay: Single-dose acute toxicity, intragastric administration
Format: in vivo, rat
Conditions: for Changes Appearance / Changes Behavior / Changes Body Weight / Changes Feed Intake / Changes Organ Histology / Changes Organ Weight / Changes Water Intake: 14-day follow-up; for Relative organ weight, Adrenal glands / Relative organ weight, Brain / Relative organ weight, Heart / Relative organ weight, Kidneys / Relative organ weight, Liver / Relative organ weight, Lungs with trachea / Relative organ weight, Ovaries / Relative organ weight, Spleen / Relative organ weight, Thymus / Relative organ weight, Testes: after 15 days, M±SEM; for number of animals that died: all dose groups; for Deaths (Dead/ Total): Wistar, rat, in vivo
Procedure: Before administration, the BX-SI043 substance was resuspended in a 1% starch solution. The animals in the treatment groups received suspensions intragastrically in doses of 2000 mg/kg (administered in two equal doses, with a 30–40 min interval), 1000 mg/kg, 600 mg/kg, and 300 mg/kg (administered in single doses).
The animals were monitored daily for any abnormalities. On the 2nd, 7th, and 13th days after administration, the animals were clinically evaluated and weighed, and the consumption of feed and water were measured. On the 14th day, the behavior of the animals was evaluated. On the 15th day, the animals were euthanized, and the lungs (with trachea), heart, thymus, liver, kidneys, spleen, stomach, small intestine, colon, brain, adrenal glands, and testes/ovaries were fixed in 10% neutral formalin for histological evaluation.

[1] = female rats, 300 mg/kg intragastric
[2] = female rats, 600 mg/kg intragastric
[3] = female rats, 1000 mg/kg intragastric
[4] = female rats, 2000 mg/kg intragastric
[5] = male rats, 300 mg/kg intragastric
[6] = male rats, 600 mg/kg intragastric
[7] = male rats, 1000 mg/kg intragastric
[8] = male rats, 2000 mg/kg intragastric

## CCOC(=O)c1[nH]c2cc(F)ccc2c1/N=N/N1CCCC1 [BX-SI043, Ethyl (E)-6-fluoro-3-(pyrrolidin-1-yldiazenyl)-1H-indole-2-carboxylate]
[1]
  Changes Appearance: no
  Changes Behavior: no
  Changes Body Weight: no
  Changes Feed Intake: no
  Changes Organ Histology: no
  Changes Organ Weight: no
  Changes Water Intake: no
  Relative organ weight, Adrenal glands: 0,03±0,003 % of body weight
  Relative organ weight, Brain: 0,84±0,032 % of body weight
  Relative organ weight, Heart: 0,46±0,012 % of body weight
  Relative organ weight, Kidneys: 0,87±0,065 % of body weight
  Relative organ weight, Liver: 4,79±0,090 % of body weight
  Relative organ weight, Lungs with trachea: 0,77±0,037 % of body weight
  Relative organ weight, Ovaries: 0,067±0,0043 % of body weight
  Relative organ weight, Spleen: 0,37±0,033 % of body weight
  Relative organ weight, Thymus: 0,280±0,016 % of body weight
Female rats, 300 mg/kg intragastric, experiment day 1
  Body weight, M±SEM: 195,3±3,67 g
Female rats, 300 mg/kg intragastric, experiment day 2
  Body weight, M±SEM: 194,8±3,92 g
Female rats, 300 mg/kg intragastric, experiment day 7
  Body weight, M±SEM: 220,0±7,86 g
Female rats, 300 mg/kg intragastric, experiment day 15
  Body weight, M±SEM: 234,7±9,33 g
[2]
  Changes Appearance: no
  Changes Behavior: no
  Changes Body Weight: no
  Changes Feed Intake: no
  Changes Organ Histology: yes
  Changes Organ Weight: no
  Changes Water Intake: no
  Relative organ weight, Adrenal glands: 0,04±0,002 % of body weight
  Relative organ weight, Brain: 0,86±0,031 % of body weight
  Relative organ weight, Heart: 0,48±0,007 % of body weight
  Relative organ weight, Kidneys: 0,78±0,021 % of body weight
  Relative organ weight, Liver: 4,64±0,067 % of body weight
  Relative organ weight, Lungs with trachea: 0,82±0,044 % of body weight
  Relative organ weight, Ovaries: 0,066±0,0032 % of body weight
  Relative organ weight, Spleen: 0,33±0,045 % of body weight
  Relative organ weight, Thymus: 0,310±0,013 % of body weight
Female rats, 600 mg/kg intragastric, experiment day 1
  Body weight, M±SEM: 195,2±4,56 g
Female rats, 600 mg/kg intragastric, experiment day 2
  Body weight, M±SEM: 207,7±4,08 g
Female rats, 600 mg/kg intragastric, experiment day 7
  Body weight, M±SEM: 222,5±5,43 g
Female rats, 600 mg/kg intragastric, experiment day 15
  Body weight, M±SEM: 221,2±5,98 g
[3]
  Changes Appearance: no
  Changes Behavior: yes
  Changes Body Weight: no
  Changes Feed Intake: yes
  Changes Organ Histology: yes
  Changes Organ Weight: no
  Changes Water Intake: no
  Relative organ weight, Adrenal glands: 0,04±0,004 % of body weight
  Relative organ weight, Brain: 0,97±0,022 % of body weight
  Relative organ weight, Heart: 0,52±0,02 % of body weight
  Relative organ weight, Kidneys: 0,82±0,027 % of body weight
  Relative organ weight, Liver: 4,67±0,23 % of body weight
  Relative organ weight, Lungs with trachea: 0,79±0,057 % of body weight
  Relative organ weight, Ovaries: 0,085±0,0075 % of body weight
  Relative organ weight, Spleen: 0,42±0,05 % of body weight
  Relative organ weight, Thymus: 0,270±0,020 % of body weight
Female rats, 1000 mg/kg intragastric, experiment day 1
  Body weight, M±SEM: 185,7±4,61 g
Female rats, 1000 mg/kg intragastric, experiment day 2
  Body weight, M±SEM: 192,2±3,94 g
Female rats, 1000 mg/kg intragastric, experiment day 7
  Body weight, M±SEM: 189,6±6,16 g
Female rats, 1000 mg/kg intragastric, experiment day 15
  Body weight, M±SEM: 199,2±6,46 g
[4]
  Changes Appearance: yes
  Changes Behavior: yes
  Changes Body Weight: no
  Changes Feed Intake: yes
  Changes Organ Histology: yes
  Changes Organ Weight: no
  Changes Water Intake: no
  Relative organ weight, Adrenal glands: 0,04±0,004 % of body weight
  Relative organ weight, Brain: 0,93±0,027 % of body weight
  Relative organ weight, Heart: 0,41±0,079 % of body weight
  Relative organ weight, Kidneys: 0,89±0,033 % of body weight
  Relative organ weight, Liver: 4,73±0,167 % of body weight
  Relative organ weight, Lungs with trachea: 0,9±0,07 % of body weight
  Relative organ weight, Ovaries: 0,088±0,0092 % of body weight
  Relative organ weight, Spleen: 0,38±0,028 % of body weight
  Relative organ weight, Thymus: 0,310±0,032 % of body weight
Female rats, 2000 mg/kg intragastric, experiment day 1
  Body weight, M±SEM: 196,5±2,06 g
Female rats, 2000 mg/kg intragastric, experiment day 2
  Body weight, M±SEM: 205,8±1,64 g
Female rats, 2000 mg/kg intragastric, experiment day 7
  Body weight, M±SEM: 183,5±11,99 g
Female rats, 2000 mg/kg intragastric, experiment day 15
  Body weight, M±SEM: 210,8±5,91 g
Female rats
  number of animals that died: 2 animals
female, 300 mg/kg, 14 days
  Deaths (Dead/ Total): 0/6
female, 600 mg/kg, 14 days
  Deaths (Dead/ Total): 0/6
female, 1000 mg/kg, 14 days
  Deaths (Dead/ Total): 1/6
female, 2000 mg/kg, 14 days
  Deaths (Dead/ Total): 1/6
[5]
  Changes Appearance: no
  Changes Behavior: no
  Changes Body Weight: no
  Changes Feed Intake: no
  Changes Organ Histology: no
  Changes Organ Weight: no
  Changes Water Intake: no
  Relative organ weight, Adrenal glands: 0,022±0,0012 % of body weight
  Relative organ weight, Brain: 0,77±0,020 % of body weight
  Relative organ weight, Heart: 0,45±0,012 % of body weight
  Relative organ weight, Kidneys: 0,98±0,046 % of body weight
  Relative organ weight, Liver: 4,53±0,26 % of body weight
  Relative organ weight, Lungs with trachea: 0,71±0,034 % of body weight
  Relative organ weight, Spleen: 0,34±0,017 % of body weight
  Relative organ weight, Testes: 1,17±0,039 % of body weight
  Relative organ weight, Thymus: 0,246±0,0276 % of body weight
Male rats, 300 mg/kg intragastric, experiment day 1
  Body weight, M±SEM: 202,8±2,87 g
Male rats, 300 mg/kg intragastric, experiment day 2
  Body weight, M±SEM: 205,7±1,73 g
Male rats, 300 mg/kg intragastric, experiment day 7
  Body weight, M±SEM: 256,7±4,65 g
Male rats, 300 mg/kg intragastric, experiment day 15
  Body weight, M±SEM: 280,8±8,21 g
[6]
  Changes Appearance: no
  Changes Behavior: no
  Changes Body Weight: no
  Changes Feed Intake: no
  Changes Organ Histology: yes
  Changes Organ Weight: no
  Changes Water Intake: no
  Relative organ weight, Adrenal glands: 0,028±0,0017 % of body weight
  Relative organ weight, Brain: 0,77±0,013 % of body weight
  Relative organ weight, Heart: 0,50±0,013 % of body weight
  Relative organ weight, Kidneys: 0,94±0,031 % of body weight
  Relative organ weight, Liver: 4,69±0,216 % of body weight
  Relative organ weight, Lungs with trachea: 0,86±0,108 % of body weight
  Relative organ weight, Spleen: 0,32±0,036 % of body weight
  Relative organ weight, Testes: 1,28±0,033 % of body weight
  Relative organ weight, Thymus: 0,27±0,0191 % of body weight
Male rats, 600 mg/kg intragastric, experiment day 1
  Body weight, M±SEM: 201,3±2,80 g
Male rats, 600 mg/kg intragastric, experiment day 2
  Body weight, M±SEM: 222,2±2,63 g
Male rats, 600 mg/kg intragastric, experiment day 7
  Body weight, M±SEM: 253,3±4,15 g
Male rats, 600 mg/kg intragastric, experiment day 15
  Body weight, M±SEM: 274,3±6,51 g
[7]
  Changes Appearance: no
  Changes Behavior: yes
  Changes Body Weight: no
  Changes Feed Intake: yes
  Changes Organ Histology: yes
  Changes Organ Weight: no
  Changes Water Intake: no
  Relative organ weight, Adrenal glands: 0,027±0,0022 % of body weight
  Relative organ weight, Brain: 0,77±0,036 % of body weight
  Relative organ weight, Heart: 0,51±0,022 % of body weight
  Relative organ weight, Kidneys: 0,87±0,008 % of body weight
  Relative organ weight, Liver: 4,91±0,128 % of body weight
  Relative organ weight, Lungs with trachea: 1,00±0,096 % of body weight
  Relative organ weight, Spleen: 0,32±0,031 % of body weight
  Relative organ weight, Testes: 1,11±0,064 % of body weight
  Relative organ weight, Thymus: 0,278±0,0278 % of body weight
Male rats, 1000 mg/kg intragastric, experiment day 1
  Body weight, M±SEM: 191,0±5,79 g
Male rats, 1000 mg/kg intragastric, experiment day 2
  Body weight, M±SEM: 206,5±6,61 g
Male rats, 1000 mg/kg intragastric, experiment day 7
  Body weight, M±SEM: 231,8±12,48 g
Male rats, 1000 mg/kg intragastric, experiment day 15
  Body weight, M±SEM: 273,0±11,56 g
[8]
  Changes Appearance: yes
  Changes Behavior: yes
  Changes Body Weight: no
  Changes Feed Intake: yes
  Changes Organ Histology: yes
  Changes Organ Weight: no
  Changes Water Intake: no
  Relative organ weight, Adrenal glands: 0,026±0,0014 % of body weight
  Relative organ weight, Brain: 0,78±0,024 % of body weight
  Relative organ weight, Heart: 0,48±0,046 % of body weight
  Relative organ weight, Kidneys: 0,90±0,034 % of body weight
  Relative organ weight, Liver: 4,08±0,252 % of body weight
  Relative organ weight, Lungs with trachea: 0,75±0,037 % of body weight
  Relative organ weight, Spleen: 0,28±0,018 % of body weight
  Relative organ weight, Testes: 1,2±0,120 % of body weight
  Relative organ weight, Thymus: 0,20±0,0116 % of body weight
Male rats, 2000 mg/kg intragastric, experiment day 1
  Body weight, M±SEM: 196,0±1,61 g
Male rats, 2000 mg/kg intragastric, experiment day 2
  Body weight, M±SEM: 212,7±3,91 g
Male rats, 2000 mg/kg intragastric, experiment day 7
  Body weight, M±SEM: 236,0±1,53 g
Male rats, 2000 mg/kg intragastric, experiment day 15
  Body weight, M±SEM: 259,7±3,18 g
Male rats
  number of animals that died: 4 animals
male, 300 mg/kg, 14 day
  Deaths (Dead/ Total): 0/6
male, 600 mg/kg, 14 day
  Deaths (Dead/ Total): 0/6
male, 1000 mg/kg, 14 day
  Deaths (Dead/ Total): 1/6
male, 2000 mg/kg, 14 day
  Deaths (Dead/ Total): 3/6

— publication PMC11899342, “Novel Triazeneindole Antibiotics: Synthesis and Hit-to-Lead Optimization” (International Journal of Molecular Sciences, 2025)
